Each structure is given as a SMILES string. pIC50: −log10 of the molar value.

The target of experiment [1] is T1, Cholecystokinin receptor type A (Rattus norvegicus, UniProt P30551).
T1 sequence (P30551 whole entry): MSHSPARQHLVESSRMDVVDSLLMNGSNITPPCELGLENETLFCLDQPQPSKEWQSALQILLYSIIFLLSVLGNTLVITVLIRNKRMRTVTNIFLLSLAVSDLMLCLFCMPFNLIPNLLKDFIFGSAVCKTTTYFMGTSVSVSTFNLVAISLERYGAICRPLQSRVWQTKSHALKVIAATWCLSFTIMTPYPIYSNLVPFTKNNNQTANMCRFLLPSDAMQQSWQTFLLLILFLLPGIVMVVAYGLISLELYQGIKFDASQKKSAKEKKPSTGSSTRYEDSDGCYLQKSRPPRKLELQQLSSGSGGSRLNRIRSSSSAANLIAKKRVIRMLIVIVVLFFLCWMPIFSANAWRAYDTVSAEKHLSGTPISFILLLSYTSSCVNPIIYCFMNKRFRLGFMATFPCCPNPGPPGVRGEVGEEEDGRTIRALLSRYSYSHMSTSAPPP
The experiment can be described thus: Inhibition of [3H]propionyl-CCK-8 specific binding to rat pancreatic Cholecystokinin type A receptor.

For experiment [2], the target named is T2, Gastrin/cholecystokinin type B receptor (Rattus norvegicus, UniProt P30553).
T2 sequence (P30553 whole entry): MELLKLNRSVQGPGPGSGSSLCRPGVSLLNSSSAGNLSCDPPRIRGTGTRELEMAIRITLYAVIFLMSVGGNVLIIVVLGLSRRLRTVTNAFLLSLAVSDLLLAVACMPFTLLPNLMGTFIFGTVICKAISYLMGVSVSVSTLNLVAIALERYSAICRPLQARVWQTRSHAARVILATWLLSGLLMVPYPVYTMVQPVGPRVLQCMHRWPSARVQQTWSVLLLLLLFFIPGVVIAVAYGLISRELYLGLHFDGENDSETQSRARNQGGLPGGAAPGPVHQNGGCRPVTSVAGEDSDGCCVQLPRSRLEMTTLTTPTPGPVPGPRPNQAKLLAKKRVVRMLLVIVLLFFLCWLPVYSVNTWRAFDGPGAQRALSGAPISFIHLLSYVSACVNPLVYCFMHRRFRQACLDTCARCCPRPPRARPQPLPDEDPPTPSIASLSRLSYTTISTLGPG
The experiment can be described thus: Inhibition of [3H]propionyl-CCK-8 specific binding to rat cerebral cortex membranes Cholecystokinin type B receptor. The experiment is classed as cell membranes, Membrane.

The nature of experiment [3]: The compound was tested to antagonize the CCK-8 induced amylase secretion from pancreatic acini. The experiment is classed as functional.

For `Cc1ccccc1NC(=O)NCCCC[C@@H](CC(=O)O)NC(=O)[C@H]1Cc2c([nH]c3ccccc23)[C@@H]2C[C@@H](NC(=O)OCc3ccccc3)C(=O)N12`, the figures for the negative-log IC50 (pIC50) in experiment [1], in experiment [2] and in experiment [3] were 8.09, 5.24 and 6.71, respectively.
Consider `Cc1ccccc1NC(=O)NCCCC[C@@H](CC(=O)O)NC(=O)[C@@H]1Cc2c([nH]c3ccccc23)[C@H]2C[C@H](NC(=O)OCc3ccccc3)C(=O)N21`, for which the pIC50 in experiment [1] was 6.49; in experiment [2], less than 5.00.
In experiment [2], `O=C(N[C@H]1C[C@@H]2c3[nH]c4ccccc4c3C[C@@H](C(=O)N[C@@H](Cc3ccccc3)C(=O)O)N2C1=O)OCc1ccccc1` showed a pIC50 of less than 5.00.
Still for that read-out and setting: under `Cc1ccccc1NC(=O)NCCCC[C@@H](CC(=O)O)NC(=O)[C@@](C)(Cc1c[nH]c2ccccc12)NC(=O)OC1C2CC3CC(C2)CC1C3` (some centres not stated) [PD-170292] stands 8.17.

(Values after ChEMBL document CHEMBL1136033, “Effects of the incorporation of IBTM beta-turn mimetics into the dipeptoid CCK(1) receptor agonist PD 170292” (Bioorg Med Chem Lett, 2002).)
